# Values joined by “and” are separate entries in the source; they are usually repeats but may differ in a detail not shown here. Equal entries are not always repeated.
# How the values were obtained:
# [1] = tested on: sebaceous lipids in sebum (fatty acid, squalene, cholesterol, wax esters, cholesteryl ester); design: species or system Rhino mice (RHJ/LeJ); settings: mouse, in vivo
# Substance P = tested on: Substance P; design: species or system Rhino mice (RHJ/LeJ); settings: mouse, in vivo
# IL-1 alpha = tested on: IL-1 alpha; design: species or system Rhino mice (RHJ/LeJ); settings: mouse, in vivo
# sebaceous glands = tested on: sebaceous glands; design: species or system Rhino mice (RHJ/LeJ); settings: mouse, in vivo
# utriculi = tested on: utriculi; design: species or system Rhino mice (RHJ/LeJ); settings: mouse, in vivo
# keratinocytes = tested on: keratinocytes; design: species or system Rhino mice (RHJ/LeJ); settings: mouse, in vivo
# fibroblasts = tested on: fibroblasts; design: species or system Rhino mice (RHJ/LeJ); settings: mouse, in vivo
# sebocytes = tested on: sebocytes; design: species or system Rhino mice (RHJ/LeJ); settings: mouse, in vivo
# back skin of Rhino mice = settings: Rhino (RHJ/LeJ), mouse, in vivo
# epidermis (back skin) = settings: Rhino (RHJ/LeJ), mouse, in vivo
# [2] = tested on: dermis (inflammatory infiltrate); settings: Rhino (RHJ/LeJ), mouse, in vivo
# dorsal skin = settings: Rhino (RHJ/LeJ), mouse, in vivo
smiles,measurement,setting,value
COc1ccc(-c2ccc3cc(C(=O)O)ccc3c2)cc1C12CC3CC(CC(C3)C1)C2 [Adapalene],Induction of increased excretion of fatty acid to the epidermis,[1],did not
same,Substance P concentration in back skin,Substance P,335.5 pg/g tissue and 414.1 pg/g tissue and 453.4 pg/g tissue and 409.8 pg/g tissue and 403.9 pg/g tissue and 491.3 pg/g tissue
same,Decrease of IL-1 alpha level versus vehicle,IL-1 alpha,96%
same,IL-1 alpha Concentration,IL-1 alpha,50.4 ng/g tissue and 40.3 ng/g tissue and 45.1 ng/g tissue and 47.8 ng/g tissue and 69.3 ng/g tissue and 36.4 ng/g tissue
same,IL-1 alpha level in back skin (mean±SD),IL-1 alpha,47.7±11.5 ng/g tissue
same,Increase of sebaceous glands surface versus vehicle group,sebaceous glands,+82%
same,Decrease in the surface area of the utriculi,utriculi,94%
same,utriculi surface,utriculi,515.3 μm^2 and 545.4 μm^2 and 585.7 μm^2 and 515.2 μm^2 and 806.1 μm^2 and 527.4 μm^2 and 605.0 μm^2
same,Increase of Ki67 positive cells in epidermis (keratinocytes),keratinocytes,30%
same,Ki67 positive cells per mm^2,keratinocytes,4411.7 cells per mm^2 and 4260.9 cells per mm^2 and 4248.9 cells per mm^2 and 3981.7 cells per mm^2 and 4121.7 cells per mm^2 and 4733.8 cells per mm^2
same,Increase of Ki67 positive cells in dermis (fibroblasts),fibroblasts,43%
same,Ki67 positive cells per mm^2,fibroblasts,1229.8 cells per mm^2 and 1499.9 cells per mm^2 and 2072.0 cells per mm^2 and 1218.1 cells per mm^2 and 1088.8 cells per mm^2 and 1181.9 cells per mm^2
same,Ki67 positive cells per mm^2,sebocytes,3722.1 cells per mm^2 and 4331.9 cells per mm^2 and 3916.9 cells per mm^2 and 3392.4 cells per mm^2 and 4299.5 cells per mm^2 and 2928.2 cells per mm^2
same,Erythema mean score on dorsal skin,back skin of Rhino mice,0.3-1.1
same,Scaling mean score on dorsal skin,back skin of Rhino mice,0.5-1.3
same,Increase in epidermis thickness (hyperplasia),epidermis (back skin),+188%
same,Increase of inflammation of the dermis,[2],+23%
same,Thickening of the dorsal skin as compared to the vehicle group,dorsal skin,+14%

# From US20240016718A1 (priority 2020, published 2024)
